Laboratory results from patent US11866433B2, “Diarylthiohydantoin compound as androgen receptor antagonist” (CHIA TAI TIANQING PHARMACEUTICAL GROUP CO., LTD., priority 2017, dated 2024).

Legend:
Assay type in all cases: in vivo
[1] = Tissue distribution test of Compound 35 and Compound 58 (plasma and brain); details: intragastric 2 mg/kg, 4 h after administration, male CD-1 mice; for Kp at 4 h / concentration at 4 h: mouse, oral; for Kp at 4 h: brain / plasma, read-out: Brain to Blood Ratio; for concentration at 4 h: plasma
Method: Taking male CD-1 mice as test animals, drug concentrations in plasma and brain after intragastric administration of Compound 35 and Compound 58 to the mice were determined by the LC/MS/MS method, respectively.
2.2 Test Animals: Two healthy adult male CD-1 mice. The animals were purchased from Shanghai Sippr-BK Laboratory Animal Co., Ltd.
An appropriate amount of sample was weighed, and added in a solution of 0.5% CMC+0.2% Tween in water. After stirring and ultrasonic processing, the resulting mixture reached a suspension state of 0.4 mg/mL.
Two male CD-1 mice were fasted overnight, and intragastrically administered at an administration volume of 5 mL/kg in a dose of 2 mg/kg.
(§1) After Compound 35 and Compound 58 were intragastrically administered to the male CD-1 mice, 100 μL of blood was collected by cardiac puncture at 4 h, placed in a test tube containing 2 μl of EDTA-K2, and centrifuged at 3000 g for 15 min to separate 30 μL of plasma, which was stored at −60° C. Meanwhile, brain tissues were collected, washed, then homogenized with 9-fold 15 mM PBS/MeOH (v:v, 2:1), and stored at −60° C. The animals were allowed to eat 4 hours after administration.
(§2) After intragastric administration to the mice, the content of the test compound in plasma and brain was determined by the LC/MS/MS method. The linear range of the method was 2.00-6000 nmol/L; and the plasma samples were analyzed after the treatment with acetonitrile precipitated protein.

[2] = Pharmacokinetic test of Compound 35 and Compound 58 in mice (intravenous and intragastric); details: mouse, plasma, male CD-1 mice; for AUC(0-t): read-out: Curve Area (0-t) AUC0-last; for Cmax: read-out: Plasma Concentration Cmax; for Tmax: read-out: Time to Peak Tmax; for Vd: read-out: Apparent Volume of Distribution Vdss; for clearance: read-out: Clearance Rate CI; for AUC(0-inf): read-out: Curve Area (0-inf) AUC0-inf; for half-life: read-out: Half Life T1/2 (converted)
Method: With reference to Example 76, the pharmacokinetic behaviors of Compound 35 and Compound 58 in mice were investigated and their pharmacokinetic profiles were evaluated.
2. Experimental Protocol Refers to Example 76.
(§3) After Compound 35 and Compound 58 were intravenously administered to the male CD-1 mice, 30 μL of blood was cross-collected at 0.0833, 0.25, 0.5, 1, 2, 4, 8, 24, and 48 h respectively, and placed in test tubes containing 2 μL of EDTA-K2. After Compound 35 and Compound 58 were administered to the intragastric administration group, 30 μL of blood was cross-collected at 0.25, 0.5, 1, 2, 4, 8, 24, and 48 h respectively, and placed in test tubes containing 2 μL of EDTA-K2. The test tubes was centrifuged at 3000 g for 15 min to separate the plasma, which was stored at −60° C. The animals were allowed to eat 4 hours after administration.
(§4) After intravenous and intragastric administration to the mice, the content of the test compound in plasma was determined by the LC/MS/MS method. The linear range of the method was 2.00-6000 nmol/L; and the plasma samples were analyzed after the treatment with acetonitrile precipitated protein.

[3] = Pharmacokinetic test of Compound 10 in mice (intravenous and intragastric); details: mouse, plasma, male CD-1 mice; for AUC(0-inf): read-out: Curve Area (0-inf) AUC0-inf; for AUC(0-t): read-out: Curve Area (0-t) AUC0-last; for half-life: read-out: Half Life T1/2 (converted)
Method: Taking male CD-1 mice as test animals, drug concentrations in plasma at different moments after intravenous and intragastric administration of Compound 10 to the mice were determined by the LC/MS/MS method. The pharmacokinetic behavior of Compound 10 in mice was investigated and its pharmacokinetic profile was evaluated.
2.2 Test Animals: Four healthy adult male CD-1 mice were divided into 2 groups, with 2 mice in each group, according to the principle of similar body weight. The animals were purchased from Shanghai Super-BK Laboratory Animal Co., Ltd., with Animal Production License No.: SCXK (Shanghai) 2013-0016.
2.3 Drug Preparation An appropriate amount of sample was weighed, and an appropriate amount of DMSO, PEG400 and water were added successively at a volume ratio of 10:40:50. After stirring and ultrasonic processing, the resulting mixture reached a clear solution state of 0.4 mg/mL for intravenous administration.
An appropriate amount of sample was weighed, and dissolved in a solution of 0.5% CMC+0.2% Tween 80. After stirring and ultrasonic processing, the resulting mixture reached a uniform suspension state of 0.4 mg/mL for intragastric administration.
Four male CD-1 mice were divided into 2 groups, and fasted overnight. The first group was intravenously administered at an administration volume of 2.5 mL/kg in a dose of 1 mg/kg; and the second group was intragastrically administered at an administration volume of 5 mL/kg in a dose of 2 mg/kg.
as §3, with “Compound 10 was” for “Compound 35 and Compound 58 were”, “was collected” for “was cross-collected”, “8,” for “8, 24,”, “and 24” for “and 48”, “tubes were” for “tubes was”, “eat 2” for “eat 4”
as §4

[4] = Tissue distribution test of Compound 27 and Compound 10 (plasma and brain); details: intragastric 2 mg/kg, 2 h after administration, male CD-1 mice
Method: Taking male CD-1 mice as test animals, drug concentrations in plasma and brain after intragastric administration of Compound 27 and Compound 10 to the mice were determined by the LC/MS/MS method, respectively.
2.2 Test Animals: Six healthy adult male CD-1 mice were divided into 2 groups, with 3 mice in each group, according to the principle of similar body weight. The animals were purchased from Shanghai Super-BK Laboratory Animal Co., Ltd., with Animal Production License No.: SCXK (Shanghai) 2013-0016.
An appropriate amount of sample was weighed, and an appropriate amount of DMSO, PEG400 and water were added successively at a volume ratio of 10:40:50. After stirring and ultrasonic processing, the resulting mixture reached a clear solution state of 0.4 mg/mL.
Six male CD-1 mice were divided into 2 groups, fasted overnight, and intragastrically administered at an administration volume of 5 mL/kg in a dose of 2 mg/kg.
as §1, with “Compound 27” for “Compound 35”, “Compound 10” for “Compound 58”, “at 2” for “at 4”, “separate 50” for “separate 30”, “with 5-fold” for “with 9-fold”, “eat 2” for “eat 4”
as §2

[5] = po, intragastric administration, 2 mg/kg
[6] = intravenous administration, 1 mg/kg

SMILES | Concentration in Brain [1] | Kp at 4 h [1] | concentration at 4 h [1] | AUC(0-t) [2, 5] | Cmax [2, 5] | Tmax [2, 5] | Vd [2, 6] | clearance [2, 6] | AUC(0-inf) [2, 6] | AUC(0-t) [2, 6] | half-life [2, 6] | other results
CCc1cc(=O)n2cc(N3C(=S)N(c4ccc(C#N)c(Cl)c4)C(=O)C3(C)C)cc(F)c2n1 [Compound 58] | 265 nmol/kg | 0.0322 | 8.26 µM | 370 µM·h | 12.8 µM | 8 h | 0.248 L/kg | 0.0794 mL/min/kg | 447 µM·h | 271 µM·h | 36.6 h | –
CCc1nc(OCCO)c2cc(N3C(=S)N(c4ccc(C#N)c(C(F)(F)F)c4)C(=O)C3(C)C)cc(F)c2n1 [Compound 10] | – | – | – | – | – | – | – | – | – | – | – | bioavailability [3, 5]: 41.7%; AUC(0-inf) [3, 5]: 27.9 µM·h; AUC(0-t) [3, 5]: 26.3 µM·h; half-life [3, 5]: 5.5 h; Cmax ([3]; po, intragastric administration, 2 mg/kg, read-out: Plasma Concentration Cmax): 2.77 µM; Tmax ([3]; po, intragastric administration, 2 mg/kg, read-out: Time to Peak Tmax): 4 h; Vd ([3]; intravenous administration, 1 mg/kg, read-out: Apparent Volume of Distribution Vdss): 0.384 L/kg; clearance ([3]; intravenous administration, 1 mg/kg, read-out: Clearance Rate CI): 0.912 mL/min/kg; AUC(0-inf) [3, 6]: 33.5 µM·h; AUC(0-t) [3, 6]: 32.3 µM·h; half-life [3, 6]: 4.88 h; Concentration in Brain [4]: 67.38 ± 44.5 nmol/kg; Kp at 2 h ([4]; mouse, brain / plasma, oral, read-out: Brain to Blood Ratio): 0.0133 ± 0.0006; concentration at 2 h ([4]; mouse, plasma, oral): 5 ± 3.16 µM
CCc1cc(=O)n2cc(N3C(=S)N(c4ccc(C#N)c(C(F)(F)F)c4)C(=O)C3(C)C)cc(F)c2n1 [Compound 35] | 281 nmol/kg | 0.0742 | 4.12 µM | 110 µM·h | 5.78 µM | 6 h | 0.667 L/kg | 0.189 mL/min/kg | 194 µM·h | 58.7 µM·h | 45.1 h | bioavailability [2, 5]: 94%
